Measured values published in PubChem BioAssay AID2060493 (Molecular Pharmacology Branch, DTP, NCI, 2025).

Test system: 616215-338-R-J1-PDC tumor spheroids, viability
Assay: Anticancer human tumor 616215-338-R-J1-PDC patient-derived colon adenocarcinoma cell line growth inhibition [GQUAD]
Conditions: spheroids with HUVEC and MSC; for IC50: curve of first compound; for viability, T/C: stronger effect = lower value
Method in brief: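 Viability of tumor cells grown as complex spheroids with endothelial and stromal cells, exposed to drug combinations. Top concentration at or near clinical Cmax (else 10 microM), diluted in half-log increments.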

[1] = second compound 0.0316 µM, first compound 0.000999 µM
[2] = second compound 0.0316 µM, first compound 0.00316 µM
[3] = second compound 0.0316 µM, first compound 0.00999 µM
[4] = second compound 0.0316 µM, first compound 0.0316 µM
[5] = second compound 0.0316 µM, first compound 0.0999 µM
[6] = second compound 0.0316 µM, first compound 0.316 µM
[7] = second compound 0.1 µM, first compound 0.000999 µM
[8] = second compound 0.1 µM, first compound 0.00316 µM
[9] = second compound 0.1 µM, first compound 0.00999 µM
[10] = second compound 0.1 µM, first compound 0.0316 µM
[11] = second compound 0.1 µM, first compound 0.0999 µM
[12] = second compound 0.1 µM, first compound 0.316 µM
[13] = second compound 0.316 µM, first compound 0.000999 µM
[14] = second compound 0.316 µM, first compound 0.00316 µM
[15] = second compound 0.316 µM, first compound 0.00999 µM
[16] = second compound 0.316 µM, first compound 0.0316 µM
[17] = second compound 0.316 µM, first compound 0.0999 µM
[18] = second compound 0.316 µM, first compound 0.316 µM
[19] = second compound 1 µM, first compound 0.000999 µM
[20] = second compound 1 µM, first compound 0.00316 µM
[21] = second compound 1 µM, first compound 0.00999 µM
[22] = second compound 1 µM, first compound 0.0316 µM
[23] = second compound 1 µM, first compound 0.0999 µM
[24] = second compound 1 µM, first compound 0.316 µM
[25] = second compound 3.16 µM, first compound 0.000999 µM
[26] = second compound 3.16 µM, first compound 0.00316 µM
[27] = second compound 3.16 µM, first compound 0.00999 µM
[28] = second compound 3.16 µM, first compound 0.0316 µM
[29] = second compound 3.16 µM, first compound 0.0999 µM
[30] = second compound 3.16 µM, first compound 0.316 µM
[31] = second compound 10 µM, first compound 0.000999 µM
[32] = second compound 10 µM, first compound 0.00316 µM
[33] = second compound 10 µM, first compound 0.00999 µM
[34] = second compound 10 µM, first compound 0.0316 µM
[35] = second compound 10 µM, first compound 0.0999 µM
[36] = second compound 10 µM, first compound 0.316 µM
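Note: spheroids exposed to agents for 7 days before readout.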
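Throughout, for viability, T/C: percent viability relative to DMSO vehicle control wells taken as 100%.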

In the case of Cc1[nH]c2ccccc2c1CCNCc1ccc(/C=C/C(=O)NO)cc1 + Cc1cnc(CNC(=O)c2c(=O)c3ccc(N4CCCN(C)CC4)nc3n3c2sc2ccccc23)cn1, the IC50 (second compound 0.0316 µM) is reported as 83.5 nM, the IC50 (second compound 0.1 µM) is reported as 110 nM and the IC50 (second compound 0.316 µM) is reported as under 0.999 nM. The IC50 (second compound 1 µM) was under 0.999 nM, the IC50 (second compound 3.16 µM) was under 0.999 nM and the IC50 (second compound 10 µM) was under 0.999 nM. For the same compound, the viability, T/C [1] was 98.6%, the viability, T/C [2] was 99.3% and the viability, T/C [3] was 101%. For the same compound, the viability, T/C [4] was 105%, the viability, T/C [5] was 40.5% and the viability, T/C [6] was 24.4%. It also gave a viability, T/C [7] of 59.6%, a viability, T/C [8] of 90% and a viability, T/C [9] of 60.8%. The viability, T/C [10] was 66.6%, the viability, T/C [11] was 54.4% and the viability, T/C [12] was 6.92%. The viability, T/C [13] was 40.8%, the viability, T/C [14] was 38.2% and the viability, T/C [15] was 38.2%. The viability, T/C [16] was 47.9%, the viability, T/C [17] was 39.1% and the viability, T/C [18] was 0.77%. The viability, T/C [19] was 36.5%, the viability, T/C [20] was 23.8% and the viability, T/C [21] was 28.2%. It also gave a viability, T/C [22] of 23.2%, a viability, T/C [23] of 13.7% and a viability, T/C [24] of 0.06%. For the same compound, the viability, T/C [25] was 27.9%, the viability, T/C [26] was 21.8% and the viability, T/C [27] was 24.9%. The viability, T/C [28] was 26.6%, the viability, T/C [29] was 0.75% and the viability, T/C [30] was 0.11%. For the same compound, the viability, T/C [31] was 24.7%, the viability, T/C [32] was 34.2% and the viability, T/C [33] was 15.5%. The viability, T/C [34] was 17.7%, the viability, T/C [35] was 0.25% and the viability, T/C [36] was 0.21%.

CCc1c2c(nc3ccc(O)cc13)-c1cc3c(c(=O)n1C2)COC(=O)[C@]3(O)CC + Cc1[nH]c2ccc(F)cc2c1-c1nc2c3cccnc3c3ncccc3c2[nH]1 was tested, and the IC50 (second compound 0.0316 µM) was 16.7 nM, the IC50 (second compound 0.1 µM) was 9.2 nM and the IC50 (second compound 0.316 µM) was 8.78 nM. The IC50 (second compound 1 µM) was 12 nM, the IC50 (second compound 3.16 µM) was 13.2 nM and the IC50 (second compound 10 µM) was 7.87 nM. For the same compound, the viability, T/C [1] was 97.3%, the viability, T/C [2] was 81.9% and the viability, T/C [3] was 53.6%. It also gave a viability, T/C [4] of 43%, a viability, T/C [5] of 23.4% and a viability, T/C [6] of 12.8%. For the same compound, the viability, T/C [7] was 94.5%, the viability, T/C [8] was 100% and the viability, T/C [9] was 46.3%. For the same compound, the viability, T/C [10] was 33.1%, the viability, T/C [11] was 24.9% and the viability, T/C [12] was 19.9%. The viability, T/C [13] was 96.5%, the viability, T/C [14] was 90.3% and the viability, T/C [15] was 42.5%. For the same compound, the viability, T/C [16] was 32.3%, the viability, T/C [17] was 21.8% and the viability, T/C [18] was 13.8%. The viability, T/C [19] was 108%, the viability, T/C [20] was 76.8% and the viability, T/C [21] was 58.9%. The viability, T/C [22] was 28.5%, the viability, T/C [23] was 21.7% and the viability, T/C [24] was 16.4%. It also gave a viability, T/C [25] of 98.5%, a viability, T/C [26] of 86.5% and a viability, T/C [27] of 51.2%. The viability, T/C [28] was 35.2%, the viability, T/C [29] was 20.7% and the viability, T/C [30] was 14.5%. The viability, T/C [31] was 90.3%, the viability, T/C [32] was 74.9% and the viability, T/C [33] was 42.5%. For the same compound, the viability, T/C [34] was 24.5%, the viability, T/C [35] was 20.5% and the viability, T/C [36] was 13.4%.

In the case of COc1ncnc(C2CC2)c1-c1ncc2cnn(Cc3ccc(-c4nc(C(F)(F)F)cn4C(C)C)cc3)c2n1 + Cc1[nH]c2ccc(F)cc2c1-c1nc2c3cccnc3c3ncccc3c2[nH]1, the IC50 (second compound 0.0316 µM) is reported as over 10000 nM, the IC50 (second compound 0.1 µM) is reported as over 10000 nM and the IC50 (second compound 0.316 µM) is reported as over 10000 nM. The IC50 (second compound 1 µM) was over 10000 nM, the IC50 (second compound 3.16 µM) was over 10000 nM and the IC50 (second compound 10 µM) was over 10000 nM. The viability, T/C [4] was 109%, the viability, T/C (second compound 0.0316 µM, first compound 0.1 µM) was 98.5% and the viability, T/C [6] was 106%. The viability, T/C (second compound 0.0316 µM, first compound 1 µM) was 91.9%, the viability, T/C (second compound 0.0316 µM, first compound 3.16 µM) was 106% and the viability, T/C (second compound 0.0316 µM, first compound 10 µM) was 101%. For the same compound, the viability, T/C [10] was 108%, the viability, T/C (second compound 0.1 µM, first compound 0.1 µM) was 93.7% and the viability, T/C [12] was 96.1%. The viability, T/C (second compound 0.1 µM, first compound 1 µM) was 98.2%, the viability, T/C (second compound 0.1 µM, first compound 3.16 µM) was 100% and the viability, T/C (second compound 0.1 µM, first compound 10 µM) was 105%. For the same compound, the viability, T/C [16] was 106%, the viability, T/C (second compound 0.316 µM, first compound 0.1 µM) was 96.3% and the viability, T/C [18] was 96.5%. For the same compound, the viability, T/C (second compound 0.316 µM, first compound 1 µM) was 99.8%, the viability, T/C (second compound 0.316 µM, first compound 3.16 µM) was 103% and the viability, T/C (second compound 0.316 µM, first compound 10 µM) was 107%. It also gave a viability, T/C [22] of 100%, a viability, T/C (second compound 1 µM, first compound 0.1 µM) of 97.9% and a viability, T/C [24] of 96.5%. For the same compound, the viability, T/C (second compound 1 µM, first compound 1 µM) was 101%, the viability, T/C (second compound 1 µM, first compound 3.16 µM) was 108% and the viability, T/C (second compound 1 µM, first compound 10 µM) was 99.8%. It also gave a viability, T/C [28] of 101%, a viability, T/C (second compound 3.16 µM, first compound 0.1 µM) of 104% and a viability, T/C [30] of 94.7%. For the same compound, the viability, T/C (second compound 3.16 µM, first compound 1 µM) was 105%, the viability, T/C (second compound 3.16 µM, first compound 3.16 µM) was 109% and the viability, T/C (second compound 3.16 µM, first compound 10 µM) was 104%. It also gave a viability, T/C [34] of 97%, a viability, T/C (second compound 10 µM, first compound 0.1 µM) of 90.1% and a viability, T/C [36] of 98.4%. The viability, T/C (second compound 10 µM, first compound 1 µM) was 98.4%, the viability, T/C (second compound 10 µM, first compound 3.16 µM) was 98.7% and the viability, T/C (second compound 10 µM, first compound 10 µM) was 96.3%.
